One experiment has as its target T1, Human M3 receptor (Homo sapiens, UniProt P20309).
T1 construct: purchased Perkin Elmer
Description: biochemical. The experiment is classed as binding. To be noted: read-out: M3 Range.

In another experiment the target is T2, Human β2 adrenoceptor (Homo sapiens, UniProt P07550).
T2 construct: purchased Perkin Elmer
Description: β2 adrenoceptor radioligand binding assay. The procedure, abridged:
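Human β2 receptor membranes incubated 1 h at room temperature with 0.3 nM [125I]cyanopindolol and compound in pH 7.4 HEPES buffer (0.5% DMSO); 2 μM s-propranolol defined non-specific binding. Bound label counted after filtration; IC50 from competition curves, converted to Ki via Cheng–Prusoff.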

pIC50: −log10 of the molar value.

T1 sequence (P20309 whole entry): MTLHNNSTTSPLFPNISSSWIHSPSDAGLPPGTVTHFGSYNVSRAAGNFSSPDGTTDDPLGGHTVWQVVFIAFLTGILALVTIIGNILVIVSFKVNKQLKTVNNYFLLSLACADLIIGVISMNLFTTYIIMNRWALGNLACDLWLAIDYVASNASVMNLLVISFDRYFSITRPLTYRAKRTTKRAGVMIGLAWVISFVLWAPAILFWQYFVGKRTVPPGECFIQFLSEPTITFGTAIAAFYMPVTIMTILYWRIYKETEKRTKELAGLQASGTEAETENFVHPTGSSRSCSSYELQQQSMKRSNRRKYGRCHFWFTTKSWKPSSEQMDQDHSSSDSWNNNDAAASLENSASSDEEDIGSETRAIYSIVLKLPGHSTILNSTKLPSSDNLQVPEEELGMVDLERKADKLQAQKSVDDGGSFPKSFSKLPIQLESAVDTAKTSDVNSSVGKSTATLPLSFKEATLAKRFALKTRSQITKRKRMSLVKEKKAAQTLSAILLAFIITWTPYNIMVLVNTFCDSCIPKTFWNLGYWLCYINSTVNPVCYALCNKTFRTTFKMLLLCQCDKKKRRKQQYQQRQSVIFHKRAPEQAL
T2 sequence (P07550 whole entry): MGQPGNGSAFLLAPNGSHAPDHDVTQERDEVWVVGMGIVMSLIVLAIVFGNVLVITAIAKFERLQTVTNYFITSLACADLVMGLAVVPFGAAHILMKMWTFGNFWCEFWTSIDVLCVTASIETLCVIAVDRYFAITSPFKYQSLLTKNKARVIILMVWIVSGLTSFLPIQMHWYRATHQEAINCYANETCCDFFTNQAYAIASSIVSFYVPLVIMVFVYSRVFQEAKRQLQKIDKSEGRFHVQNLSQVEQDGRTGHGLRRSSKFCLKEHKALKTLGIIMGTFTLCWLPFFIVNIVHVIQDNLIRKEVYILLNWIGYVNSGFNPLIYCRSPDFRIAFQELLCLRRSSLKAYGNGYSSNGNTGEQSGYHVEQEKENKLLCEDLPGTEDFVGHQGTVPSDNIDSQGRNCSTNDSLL

Turning to `CN(CC(=O)N1CC=C(c2cccc([C@](O)(C(=O)OCC3CCN(Cc4ccccc4)CC3)c3ccccc3)c2)CC1)C(=O)c1ccc(CNC[C@H](O)c2ccc(O)c3[nH]c(=O)ccc23)cc1` [Compound 8F, (1-Benzylpiperidin-4-yl)methyl (S)-2-hydroxy-2-(3-(1-(N-(4-((((R)-2-hydroxy-2-(8-hydroxy-2-oxo-1,2-dihydroquinolin-5-yl)ethyl)amino)-methyl)benzoyl)-N-methylglycyl)-1,2,3,6-tetrahydropyridin-4-yl)phenyl)-2-phenylacetate], the pIC50 on Human M3 receptor and on Human β2 adrenoceptor was 8.52 to 9.52 throughout.

With `O=C(NCCCNC[C@H](O)c1ccc(O)c2[nH]c(=O)ccc12)c1cncc(-c2cccc([C@](O)(C(=O)OCC3CCN(Cc4ccccc4)CC3)c3ccccc3)c2)n1` [Compound 10, (1-Benzylpiperidin-4-yl)methyl (S)-2-hydroxy-2-(3-(6-((3-(((R)-2-hydroxy-2-(8-hydroxy-2-oxo-1,2-dihydroquinolin-5-yl)ethyl)amino)propyl)carbamoyl)pyrazin-2-yl)phenyl)-2-phenylacetate], the pIC50 at Human M3 receptor and at Human β2 adrenoceptor was 8.52 to 9.52 in each case.

Turning to `COc1cc(C(=O)NCc2ccc(-c3cccc([C@](O)(C(=O)OCC4(C)CCN(Cc5ccccc5)CC4)c4ccccc4)c3)s2)c(Cl)cc1CNC[C@H](O)c1ccc(O)c2[nH]c(=O)ccc12` [Compound 11, (1-Benzyl-4-methylpiperidin-4-yl)methyl (S)-2-(3-(5-((2-chloro-4-((((R)-2-hydroxy-2-(8-hydroxy-2-oxo-1,2-dihydroquinolin-5-yl)ethyl)amino)methyl)-5-methoxybenzamido)methyl)thiophen-2-yl)phenyl)-2-hydroxy-2-phenylacetate], the pIC50 is 8.52 to 9.52 at Human M3 receptor and more than 9.52 on Human β2 adrenoceptor.

Consider `O=C1c2ccc(CNC[C@H](O)c3ccc(O)c4[nH]c(=O)ccc34)cc2C(=O)N1Cc1ccc(-c2cccc([C@](O)(C(=O)OCC3CCN(Cc4ccccc4)CC3)c3ccccc3)c2)s1` [Compound 12, (1-Benzylpiperidin-4-yl)methyl (S)-2-hydroxy-2-(3-(5-((5-((((R)-2-hydroxy-2-(8-hydroxy-2-oxo-1,2-dihydroquinolin-5-yl)ethyl)amino)methyl)-1,3-dioxoisoindolin-2-yl)methyl)thiophen-2-yl)phenyl)-2-phenylacetate], for which the pIC50 at Human M3 receptor and on Human β2 adrenoceptor was 8.52 to 9.52 in each case.

With `O=C(NCC(=O)N1CCC(c2cccc([C@](O)(C(=O)OCC3CCN(Cc4ccccc4)CC3)c3ccccc3)c2)CC1)c1ccc(CCNC[C@H](O)c2ccc(O)c3[nH]c(=O)ccc23)cc1` [Compound 13, (1-Benzylpiperidin-4-yl)methyl (S)-2-hydroxy-2-(3-(1-((4-(2-(((R)-2-hydroxy-2-(8-hydroxy-2-oxo-1,2-dihydroquinolin-5-yl)ethyl)amino)ethyl)benzoyl)-glycyl)piperidin-4-yl)phenyl)-2-phenylacetate], the values for the pIC50 at Human M3 receptor and at Human β2 adrenoceptor were 8.52 to 9.52 and more than 9.52, respectively.

With `Cn1nc(C(=O)NCc2ccc(CNC[C@H](O)c3ccc(O)c4[nH]c(=O)ccc34)cc2)cc1-c1cccc([C@](O)(C(=O)OCC2CCN(Cc3ccccc3)CC2)c2ccccc2)c1` [Compound 14, (1-Benzylpiperidin-4-yl)methyl (S)-2-hydroxy-2-(3-(3-((4-((((R)-2-hydroxy-2-(8-hydroxy-2-oxo-1,2-dihydroquinolin-5-yl)ethyl)amino)methyl)-benzyl)carbamoyl)-1-methyl-1H-pyrazol-5-yl)phenyl)-2-phenylacetate], the pIC50 at Human M3 receptor and on Human β2 adrenoceptor was 8.52 to 9.52 each time.

In the case of `O=C(NCc1ccc(-c2ccc([C@](O)(C(=O)OCC3CCN(Cc4ccccc4)CC3)c3ccccc3)cc2)s1)c1ccc(CNC[C@H](O)c2ccc(O)c3[nH]c(=O)ccc23)cc1` [Compound 15, (1-benzylpiperidin-4-yl)methyl (S)-2-hydroxy-2-(4-(5-((4-((((R)-2-hydroxy-2-(8-hydroxy-2-oxo-1,2-dihydroquinolin-5-yl)ethyl)amino)methyl)benzamido)methyl)-thiophen-2-yl)phenyl)-2-phenylacetate×2 HCOOH], the pIC50 was 8.52 to 9.52 on Human M3 receptor and more than 9.52 on Human β2 adrenoceptor.

Consider `COc1cc(C(=O)NCc2ccc(-c3ccc([C@](O)(C(=O)OCC4CCN(Cc5ccccc5)CC4)c4ccccc4)cc3)s2)ccc1CNC[C@H](O)c1ccc(O)c2[nH]c(=O)ccc12` [Compound 15A, (1-benzylpiperidin-4-yl)methyl (S)-2-hydroxy-2-(4-(5-((4-((((R)-2-hydroxy-2-(8-hydroxy-2-oxo-1,2-dihydroquinolin-5-yl)ethyl)amino)methyl)-3-methoxybenzamido)methyl)thiophen-2-yl)phenyl)-2-phenylacetate], for which the pIC50 at Human M3 receptor is 8.52 to 9.52; at Human β2 adrenoceptor, more than 9.52.

Regarding `O=C(NCc1cc(-c2ccc([C@](O)(C(=O)OCC3CCN(Cc4ccccc4)CC3)c3ccccc3)cc2)cs1)c1ccc(CNC[C@H](O)c2ccc(O)c3[nH]c(=O)ccc23)cc1` [Compound 15B, (1-benzylpiperidin-4-yl)methyl (S)-2-hydroxy-2-(4-(5-((4-((((R)-2-hydroxy-2-(8-hydroxy-2-oxo-1,2-dihydroquinolin-5-yl)ethyl)amino)methyl)-benzamido)methyl)thiophen-3-yl)phenyl)-2-phenylacetate], the pIC50 is less than 8.52 at Human M3 receptor and 8.52 to 9.52 on Human β2 adrenoceptor.

As to `O=C(NCc1cnc(-c2ccc([C@](O)(C(=O)OCC3CCN(Cc4ccccc4)CC3)c3ccccc3)cc2)s1)c1ccc(CNC[C@H](O)c2ccc(O)c3[nH]c(=O)ccc23)cc1` [Compound 15C, (1-benzylpiperidin-4-yl)methyl (S)-2-hydroxy-2-(4-(5-((4-((((R)-2-hydroxy-2-(8-hydroxy-2-oxo-1,2-dihydroquinolin-5-yl)ethyl)amino)methyl)-benzamido)methyl)thiazol-2-yl)phenyl)-2-phenylacetate], the pIC50 at Human M3 receptor was 8.52 to 9.52; on Human β2 adrenoceptor it was more than 9.52.

For the molecule `O=C(NCc1ccc(-c2ccc([C@](O)(C(=O)OCC3CCN(Cc4ccccc4)CC3)c3ccccc3)cc2)cn1)c1ccc(CNC[C@H](O)c2ccc(O)c3[nH]c(=O)ccc23)cc1` [Compound 15D, (1-benzylpiperidin-4-yl)methyl (S)-2-hydroxy-2-(4-(6-((4-((((R)-2-hydroxy-2-(8-hydroxy-2-oxo-1,2-dihydroquinolin-5-yl)ethyl)amino)methyl)-benzamido)methyl)pyridin-3-yl)phenyl)-2-phenylacetate], the pIC50 was 8.52 to 9.52 on Human M3 receptor and more than 9.52 on Human β2 adrenoceptor.

On to `O=C(c1ccc(CNC[C@H](O)c2ccc(O)c3[nH]c(=O)ccc23)cc1)N1CC=C(c2ccc([C@](O)(C(=O)OCC3CCN(Cc4ccccc4)CC3)c3ccccc3)cc2)CC1` [Compound 15E, (1-benzylpiperidin-4-yl)methyl (S)-2-hydroxy-2-(4-(1-(4-((((R)-2-hydroxy-2-(8-hydroxy-2-oxo-1,2-dihydroquinolin-5-yl)ethyl)amino)methyl)benzoyl)-1,2,3,6-tetrahydropyridin-4-yl)phenyl)-2-phenylacetate], for which the pIC50 at Human M3 receptor was 8.52 to 9.52; at Human β2 adrenoceptor, more than 9.52.

On to `COc1cc(C(=O)NCc2cc(-c3ccc([C@](O)(C(=O)OCC4CCN(Cc5ccccc5)CC4)c4ccccc4)cc3)cs2)ccc1CNC[C@H](O)c1ccc(O)c2[nH]c(=O)ccc12` [Compound 15F, (1-benzylpiperidin-4-yl)methyl (S)-2-hydroxy-2-(4-(5-((4-((((R)-2-hydroxy-2-(8-hydroxy-2-oxo-1,2-dihydroquinolin-5-yl)ethyl)amino)methyl)-3-methoxybenzamido)methyl)thiophen-3-yl)phenyl)-2-phenylacetate], for which the pIC50 was 8.52 to 9.52 at Human M3 receptor and more than 9.52 at Human β2 adrenoceptor.

As for `O=C(NCc1ccc(CCNC[C@H](O)c2ccc(O)c3[nH]c(=O)ccc23)cc1)c1ccc(-c2ccc([C@](O)(C(=O)OCC3CCN(Cc4ccccc4)CC3)c3ccccc3)cc2)s1` [Compound 16, (1-benzylpiperidin-4-yl)methyl (S)-2-hydroxy-2-(4-(5-((4-(2-(((R)-2-hydroxy-2-(8-hydroxy-2-oxo-1,2-dihydroquinolin-5-yl)ethyl)amino)ethyl)benzyl)-carbamoyl)thiophen-2-yl)phenyl)-2-phenylacetate×2 HCOOH], the pIC50 on Human M3 receptor was less than 8.52; at Human β2 adrenoceptor it was 8.52 to 9.52.

Values taken from patent publication US10196386B2, “Compounds having muscarinic receptor antagonist and beta2 adrenergic receptor agonist activity” (priority 2016, dated 2019).
